These results are taken from publication PMC11462456 (Chemical Science, 2024).

For data set [1], the target named is T1, BRD4 (Homo sapiens, UniProt O60885).
T1 construct: BRD2, BRD3 and BRD4 protein levels were measured by western blot; endogenous in cells; host or cells: HEK293 (ATCC)
Put plainly: Western blot degradation of BRD4 in HEK293 cells. The note with it: HEK293, lenalidomide 10 μM preincubated 2 h, PROTAC 100 nM, 4 h. The data set is classed as cell-based.
From the text: Primary antibodies used for western blotting included anti-human BRD2(1:2000, rabbit monoclonal, Abcam, ab139690), anti-human BRD3 (1:1000, rabbit monoclonal, Abcam, ab264420), anti-human BRD4 (E2A7X) (1:1000, rabbit monoclonal, Cell Signaling
Science, # 32-2500).Secondary antibodies used for western blot included: anti-mouse horseradish peroxidase-linked antibody (1:3000, sheep, GE Healthcare Life Sciences, #NA931V), and anti-rabbit horseradish peroxidase-linked antibody (1:8000, donkey, GE Healthcare Life Sciences, #NA934V). Reagent for degradation assay and compounds
4.2 Cell lines and culture
HEK293, A549, SKOV-3, HCT116 cells (ATCC)were grown in DMEM (Gibco),and all cells were supplemented with 10% (v/v) fetal bovine serum (FBS) (Sigma), 100 mg/mL penicillin/streptomycin solution (Thermo Fisher Scientific) and maintained at 37 °C and 5% CO2 in a humidified atmosphere. All cells used were tested monthly using the Mycoalert
4.3 Degradation assays by Western blot
General method of Western blot: Lysates were sonicated and centrifuged at 4 °C at 20000 g for 15 min, and the supernatants were transferred to new tubes. Protein concentration of cell lysates was measured using the DC Protein Assay kit (BIO-RAD) following manufacturer's instructions. Cell lysates were mixed with reducing sample buffer (0.5 M Tris-HCl (pH 6.8),
at 95°C. Proteins were separated by SDS–PAGE (SDS polyacrylamide gel electrophoresis) with 25–40 µg of total protein per well, transferred to 0.2-μm-pore nitrocellulose membranes (BIO-RAD), then blocked in 5%(w/v) milk in PBS and 0.5% Tween-20, and incubated overnight at 4°C with primary antibodies described in section 4.1. Secondary antibodies were added for 1h at room temperature after 3 times washing with blocking buffer. After 6 times of washing
with PBS (Thermo Fisher Scientific) and 0.5% Tween-20, Blots were detected using the Clarity Western ECL Substrate (BIO-RAD) and visualized on iBright CL 750 (Thermo Fisher Scientific) and images were analyzed using iBright Firmware 1.7.0.
4.3.1 Evaluation of the degradation capacity of PROTACs […]

Data set [2] can be described thus: Body weight change in A549 xenograft mice. It is filed as in vivo, mouse. The note with it: i.p. The method, then: 4.7 Therapeutic anti-tumor evaluation
Animal experiments were carried out in accordance with the regulatory guidelines of the Ethics Committee of the Ghent University Hospital. 30 female Swiss Nude Immunodeficient mice (Crl:NU(Ico)-Foxn1nu) of 5 weeks-6 weeks old (Charles River) were subcutaneously injected with […] A549 (1:1 serum free DMEM medium: Matrigel (Corning)). 10 days post inoculation ,mice were randomized into five groups (6 mice/group) with equal average tumor volume and treatment was started: (1) the control group: Vehicle(20% PEG400 and 5% […]
2J2V group (0.1 mg/kg), (5) the 2J2V group(0.5 mg/kg).Mice were treated on Day 0, Day 2, Day 4, Day 11, Day 18 by intraperitoneal injection. Tumor growth was monitored every 3 days by caliper, and the tumor volume was calculated as 1/2 × length × width2. Body weight was monitored every 3 days by weighing scale. […]
The reduced […]
proteins were alkylated with 40 mM iodoacetamide (IAA) in the dark for 30 minutes. Then samples were acidified with 1.2% aqueous phosphoric acid and mixed with 6× volumes of 90% methanol, 100 mM TEAB, pH 7.1 (S-Trap binding buffer). The samples were loaded onto the (1 picture or pasted object on this page, not shown here)

The subject of data set [3] is HEK293, A549, HCT116 and SKOV-3. The data set is described as follows: CellTiter-Glo metabolic activity, cell line panel. It is filed as cell-based. The note with it: 48 h. The method, then: 4.4 Cell viability assay on 2D cells cultures
HEK293, HCT116, A549,andSKOV-3 cells were seeded in 96-well tissue culture plates at a density of 2000-3000 cells per well in 100 µl of growth medium and incubated overnight at 37 °C with 5% CO2. The following day, the cells were treated with various concentrations of compounds or 0.05% DMSO for 48 h. After treatment, add 100 μl of Cell Titer-Glo® 2.0 Reagent (cat. no. G9243, Promega) in each well, then the 96-well plates were put on an orbital shaker for 10 min and then allow the plate to incubate at room temperature for 10-20min to stabilize the luminescent signal. Luminescence readout (Gen5 Data Analysis Software v3.08.01) was performed to record luminescence.
(1 picture or pasted object on this page, not shown here)
(Cellular ATP, detected with luciferase, serves as a proxy for viable cell number.)

The subject of data set [4] is A549 cells. The data set is described as follows: MTT cell viability with and without washout. The data set is classed as cell-based, human. The method, then:
Figure S6 Dual-ligand PROTAC activity is not caused by enhanced BRD-inhibition by dual JQ1
display. A549 cells were treated with an escalating dose of 2J2V, 2J-N3 and JQ1, respectively, for 8h.
Subsequently, cells were either washed and cultured in fresh medium, or left untouched. After a total
of 48h, cell viability was measured by MTT assay (n=6). […]

As for `Cc1sc2c(c1C)C(c1ccc(Cl)cc1)=N[C@@H](CC(=O)NCCOCCOCCNC(=O)C[C@H](NC(=O)COCCOCCOCCOCCn1cc(CCC(=O)N[C@@H](CC(=O)NCCOCCOCCNc3cccc4c3C(=O)N(C3CCC(=O)NC3=O)C4=O)C(=O)NCCOCCOCCNc3cccc4c3C(=O)N(C3CCC(=O)NC3=O)C4=O)nn1)C(=O)NCCOCCOCCNC(=O)C[C@@H]1N=C(c3ccc(Cl)cc3)c3c(sc(C)c3C)-n3c(C)nnc31)c1nnc(C)n1-2` (stereo partly drawn) [2J2P], the “BRD4 degradation efficiency on addition of lenalidomide” value in data set [1] is on record as “significantly reduced”.
Consider `Cc1ncsc1-c1ccc(C(C)NC(=O)C2CC(O)CN2C(=O)C(NC(=O)COCCOCCNC(=O)CC(NC(=O)CCc2cn(CCOCCOCCOCCOCC(=O)NC(CC(=O)NCCOCCOCCNC(=O)CC3N=C(c4ccc(Cl)cc4)c4c(sc(C)c4C)-n4c(C)nnc43)C(=O)NCCOCCOCCNC(=O)CC3N=C(c4ccc(Cl)cc4)c4c(sc(C)c4C)-n4c(C)nnc43)nn2)C(=O)NCCOCCOCC(=O)NC(C(=O)N2CC(O)CC2C(=O)NC(C)c2ccc(-c3scnc3C)cc2)C(C)(C)C)C(C)(C)C)cc1` (stereo not drawn) [2J2V], for which the results for the body weight change result in data set [2] (0.1 mg kg−1) and in data set [2] (0.5 mg kg−1) were “no detectable decrease in body weight” and “slight body weight decrease”, respectively. In data set [3], the “metabolic inhibition, comparison” value is “greater metabolic response compared to the CRBN ligase-based dual-ligand PROTACs 2J2P”. The cytotoxic activity result in data set [4] (48 hours) is on record as “much more potent”. Moreover, in data set [4] (washout after 8 hours, 48 hours total), the “cytotoxic potency after washout” value is given as “largely retained its potency after washout”.
